Measured values taken from patent publication US20260345582A1, “PRODRUG FOR ANTI-AGING RELATED DISEASES AND USE METHOD THEREOF” (Beijing SunCell Bio-Medical Co., Ltd., priority 2022, published 2026).

Assays:
[1] = tested on: A549 cells (human non-small cell lung cancer cell), induced senescent with Cisplatin; assay: in vitro killing of induced senescent A549 cells (CCK-8); format: cell-based
From the text: A. The killing results of some selected compounds in the in vitro compound library screening on the induced senescent A549 cell model. Wherein, MZ-1, dBET6, ARV-825, I-BET726, I-BET151, and INCB057643 are all BET inhibitors; A1331852 and A1155463 are novel Bcl-xL inhibitors; Dasatinib, Quercetin, Fisetin, Curcumin are the familiar active drugs or natural products.
B. Comparison of the killing effects of three Bcl-xL inhibitors on the induced senescent A549 cell model. A549 represents the normal uninduced A549 cell group; and A549-CDDP represents the senescent A549 cell group induced with Cisplatin (CDDP) in vitro.
(§1) Induction of the Cellular Senescence

[2] = tested on: platelets in peripheral blood; assay: in vivo platelet toxicity test, multiple intraperitoneal injections; parameters: species or system C57 mice
Description: B. The schematic diagram of the multiple dosing and the subsequent blood routine examinations in mice. The drug was administered on 3 consecutive days per week, followed by a 4-day interval, for 3 weeks continuous administration. The drug was administered by intraperitoneal injection in the afternoon on days 0, 1, 2, 7, 8, 9, 14, 15, and 16, and the blood was collected and tested in the morning on days 1, 3, 5, 8, 10, 12, 15, 17, and 19, respectively.
C. Results of the platelet counts in peripheral blood on days 1, 3, 5, 8, 10, 12, 15, 17, and 19 after multiple intraperitoneal injections of different doses of the given drug. Each dot in the panel represents the count of platelets detected in 1 mouse at that time point (n=4 mice); mpk represents the milligram dose per kilogram of the body weight, A13 represents the parent compound A1331852 administration group, and A13bGa1 represents the prodrug obtained after the β-gal modification of A13. The dashed line in the panel indicates the mean value of platelet counts in mice in the single vehicle administration control group.
In Vivo Platelet Toxicity Test
A single administration of A13 or A13bG was performed. Female 5-6 week old C57 mice were treated with a single intraperitoneal injection. A13 and A13bG were administered in three different dose groups of 2, 5, and 20 mg/kg. Approximately 50 μl of blood was collected from each mouse at different time points into the EDTA tubes (RAM Scientific) by means of inner canthal blood extraction, and analyzed using a haematology analyzer for a blood routine examination and a platelet counting. Multiple administrations of A13 or A13bG were performed. Female 5-6 week old C57 mice were treated with multiple intraperitoneal injections. A13 and A13bG were administered in three different dose groups of 2, 5 and 20 mg/kg, three consecutive days per week, followed by a 4-day withdrawal for 3 weeks. The time points of administration were in the afternoon of days 0, 1, 2, 7, 8, 9, 14, 15, and 16, and the time points of blood collection and testing were in the morning of days 1, 3, 5, 8, 10, 12, 15, 17, and 19, respectively.
For a blood routine examination, 50 μl of fresh blood was collected from each mouse and immediately mixed with EDTA. Blood samples were analyzed by Celltac Alpha MEK-6400 series haematology analyzer (Nihon Kohden, MEK-6400). Data were expressed as the number of different blood cells or platelets per μl of blood. For the serum biochemical analysis, the blood samples were collected, coagulated for 2 hours at room temperature or overnight at 4 °C, and then centrifuged (1000 g, 10 minutes) to obtain serum. A 200 μl of serum was aliquoted and analyzed for alanine aminotransferase (ALT), aspartate aminotransferase (AST), uric acid (UA), and creatinine (CREA) by a chemistry analyzer (Mindray, BS-350E).

[3] = tested on: mouse model of Bleomycin-induced pulmonary fibrosis; assay: HE pathological changes in the lungs, Bleomycin-induced pulmonary fibrosis; format: in vivo, C57 mice; details: A13 2 mg/kg, A13bGa1 5 mg/kg; for inflammation and consolidation of the mouse lungs (HE pathology): i.p. four weeks, FIG. 5D and Table 1
Description: A. Modelling of a mouse model of Bleomycin-induced pulmonary fibrosis, and the schematic diagram of treatment. Mice were modelled with Bleomycin administered via tracheal instillation on day 0, and the treatment with intraperitoneal injection of the drug was started on day 4. The drug was administered for 3 consecutive days per week, followed by a 4-day withdrawal, for 4 weeks.
D. Representative results of HE and Masson staining of the pathological sections of lungs taken from different groups of mice after execution. Normal represents the saline tracheal instillation modelling control group; Vehicle represents the vehicle administration control group; A13bGa1 represents the prodrug treatment group; A13 represents the A1331852 treatment group. Scale bar: 500 μm.
All drugs were mixed in 85% physiological saline, 5% DMSO (Sigma, D8418) and 10% Solutol HS 15 (Sigma, 42966), and administered to mice by intraperitoneal (i.p.) injection. To treat the bleomycin-injured young mice, A13 (2 mg/kg), A13bGa1 (5 mg/kg), or an empty vehicle control was administered three consecutive days per week for four weeks. A1331852 (abbreviated as A13) was purchased from MCE.
Bleomycin-Induced Pulmonary Fibrosis
Bleomycin was purchased from Selleck. As previously reported (Bivas-Benita et al., Eur J Pharm Biopharm 61, 214-218 (2005)), a transtracheal injection of bleomycin (2 mg/kg) was performed to the young male C57 mice (8-10 weeks old) to induce lung fibrosis. Drug treatment was initiated four days after modelling, and the drug was administered three consecutive days per week for four consecutive weeks, after which the mice were executed for material collection.
Histopathological Examination
All animals (including those found dead, dying, and euthanised) were autopsied, and the lung tissues were preserved. The lungs were separated, the fat and other tissues were removed, the surface fluid was absorbed using a filter paper, and the whole lungs were weighed (those found dead, dying, and euthanised) for calculation of the lung weight index. The right lung and bronchiole were fixed in 10% neutral buffered formalin solution, embedded in paraffin, sectioned, prepared into slices, and stained with HE for a histopathological and morphological observation of the lung. The degree of the lesions such as the inflammatory cell infiltration in the lung tissue were graded according to a 4-grade classification (slight, mild, moderate, severe) using a standard terminology for diagnosis and classification. The left lung tissue was clipped and stored temporarily below −60′C.

[4] = tested on: HEF cells (primary human embryonic skin fibroblast), induced senescent with Etoposide; assay: in vitro killing of induced senescent HEF cells (CCK-8); format: cell-based
From the text: C. Comparison of the killing effects of three Bcl-xL inhibitors on the induced senescent HEF cell model. HEF represents the isolated early generation uninduced HEF cell group; and HEF-ETO represents the senescent HEF cell group induced with Etoposide (ETO) in vitro.
as §1

Cc1c(-c2ccc(N3CCc4cccc(C(=O)Nc5nc6ccccc6s5)c4C3)nc2C(=O)O)cnn1CC12CC3CC(CC(C3)C1)C2 [Compound A13, 3-[1-(adamantan-1-ylmethyl)-5-methylpyrazol-4-yl]-6-{8-[(1,3-benzothiazol-2-yl)carbamoyl]-3,4-dihydro-1H-isoquinolin-2-yl}pyridine-2-carboxylic acid]
selective killing effect on the senescent cells ([1]; A549-CDDP vs A549, FIG. 1B): selective killing effect on the senescent cells
senescent cell killing activity and selectivity, compound screening ([1]; induced senescent A549 cell model, FIG. 1A): good senescent cell killing activity and selectivity in vitro
toxic effects on the platelets at the lowest dose ([2]; multiple rounds i.p., 2 mg/kg, 3 consecutive days per week, 3 weeks, FIG. 4C): very serious toxic effects on the platelets
destructive effects on the platelets at the three doses tested ([2]; multiple rounds i.p., 2, 5, 20 mg/kg, FIG. 4C): strong destructive effects on the platelets
number of the peripheral blood platelets during monitoring ([2]; multiple rounds i.p., FIG. 4C): dramatic fluctuations in the number of the peripheral blood platelets
inflammation and consolidation of the mouse lungs (HE pathology) [3]: no improvement
selective killing effect on the senescent cells ([4]; HEF-ETO vs HEF, FIG. 1C): selective killing effect on the senescent cells

Cc1c(-c2ccc(N3CCc4cccc(C(=O)Nc5nc6ccccc6s5)c4C3)nc2C(=O)OCc2ccc(O[C@@H]3O[C@H](CO)[C@H](O)[C@H](O)[C@H]3O)c([N+](=O)[O-])c2)cnn1CC12CC3CC(CC(C3)C1)C2 [Compound A13bGa1]
killing of the senescent cells, efficiency and selectivity ([1]; A549 cells, lung-derived, FIG. 3E): highly efficient and selective in killing the senescent cells
changes in the number of the peripheral blood platelets ([2]; multi-round i.p. regimen, FIG. 4C): relatively stable
toxic side effects on the platelets ([2]; multi-round i.p. regimen, in contrast to A13, FIG. 4C): significantly reduced
inflammation and consolidation of the mouse lungs (HE pathology) [3]: significant improvement
Bleeding, alveolar/interstitial: mild (++) ([3]; of 6 animals): 0 number of animals
Bleeding, alveolar/interstitial: moderate (+++) ([3]; of 6 animals): 0 number of animals
Bleeding, alveolar/interstitial: negative (−) ([3]; of 6 animals): 3 number of animals
Bleeding, alveolar/interstitial: slight (+) ([3]; of 6 animals): 3 number of animals
Exudative oedema, alveolar: mild (++) ([3]; of 6 animals): 2 number of animals
Exudative oedema, alveolar: moderate (+++) ([3]; of 6 animals): 1 number of animals
Exudative oedema, alveolar: negative (−) ([3]; of 6 animals): 2 number of animals
Exudative oedema, alveolar: severe (++++) ([3]; of 6 animals): 0 number of animals
Exudative oedema, alveolar: slight (+) ([3]; of 6 animals): 1 number of animals
The infiltration of the inflammatory cells: mild (++) ([3]; of 6 animals): 0 number of animals
The infiltration of the inflammatory cells: moderate (+++) ([3]; of 6 animals): 1 number of animals
The infiltration of the inflammatory cells: negative (−) ([3]; of 6 animals): 4 number of animals
The infiltration of the inflammatory cells: slight (+) ([3]; of 6 animals): 1 number of animals
Thickening and consolidation of the pulmonary septum: mild (++) ([3]; of 6 animals): 5 number of animals
Thickening and consolidation of the pulmonary septum: moderate (+++) ([3]; of 6 animals): 0 number of animals
Thickening and consolidation of the pulmonary septum: negative (−) ([3]; of 6 animals): 1 number of animals
Thickening and consolidation of the pulmonary septum: severe (++++) ([3]; of 6 animals): 0 number of animals
Thickening and consolidation of the pulmonary septum: slight (+) ([3]; of 6 animals): 0 number of animals
killing of the senescent cells, efficiency and selectivity ([4]; HEF cells, human skin-derived fibroblasts, FIG. 3B): highly efficient and selective in killing the senescent cells
